Source: publication PMC10845951, “Characterization of a selective, iron-chelating antifungal compound that disrupts fungal metabolism and synergizes with fluconazole” (Microbiology Spectrum, 2024)

Key:
[1] = Nano liquid chromatography-mass spectrometry metal binding
Method: Liquid chromatography-mass spectrometry (LC-MS)-grade water, acetonitrile, and formic acid (≥99%) were purchased from VWR (Radnor, PA, USA). […] Metal solutions containing 2 µM, 4 µM, 6 µM, and 10 µM CaCl2, CuCl2, FeCl2, FeCl3, MgCl2, MnCl2, and ZnCl2 in 0.1% formic acid in LC-MS-grade water (hereby referred to as 0.1% formic acid) were made. A stock solution of terpyridine (100 µM) in 0.1% formic acid was made and added to the metal solutions to a final concentration of 10 µM terpyridine. All metal solutions in addition to a blank sample containing 10 µM terpyridine in 0.1% formic acid were subjected to nano liquid chromatography (nanoLC-MS) analysis. nanoLC-MS was performed using an nLC EASY 1000 pump connected to a Q-Exactive mass spectrometer (MS) with a Nanospray Flex ion source (all from Thermo Fisher Scientific, Waltham, MA, USA). For separation, a 50 µm (inner diameter) × 5 cm in-house packed nanoLC column containing 2.6-µm Accucore C18 particles (80 Å) was used. The column was packed according to the protocol from Berg et al. ([58]). Trapping of analytes prior to separation was performed online using a 2-cm Acclaim PepMap with 3-µm particles (100 Å). All columns and packing materials were obtained from Thermo Fisher Scientific. The mobile phases consisted of 0.1% formic acid (A) and 90/10/0.1 acetonitrile/water/formic acid (vol/vol/vol) (B).

C. glabrata cells = experiment: CellTiter-Glo assay in Candida (relative ATP levels); assay type: cell-based, Candida glabrata; conditions: 0.625, 2.5, 10 µM; 1, 3, 6, 24 h
Method: The samples were incubated for 24 h at 30°C and then measured for OD600. Equal number of cells were harvested in each time point according to an OD600 of 0.1–0.4 and then centrifuged at 7000 rpm for 5 minutes to remove the supernatant. The cell pellets were resuspended in 100-µL YNB −iron and then transferred to a 96-well plate. Finally, the samples were treated with 100-µL CellTiter-Glo and then measured for luminescence using a plate reader.

[2] = system: Aft1/2 target genes FTR1, FET3, HMX1, LSO1 in WT S. cerevisiae; experiment: RT-qPCR of Aft1/2 target genes; assay type: cell-based, Saccharomyces cerevisiae; conditions: WT Sc cells, 10 µM, 24 h
Method: WT and […] cells were grown overnight in complete supplement mixture (CSM). […] After 24 h of incubation, cells were collected, and total RNA purification, reverse transcription, and RT-qPCR were performed as previously described with minor modifications ([59], [66]). Briefly, total RNA was purified using the RNeasy Mini Kit (74104, Qiagen), and reverse transcription was performed using the QuantiTect Reverse Transcription Kit (205311, Qiagen). RT-qPCR experiments were done using the HOT FIREPol EvaGreen qPCR Mix (08-36-00001-10, Solis Biodyne) and a LightCycler 96 System (Roche). Expression of the 5S gene was used as a control. The primers used in RT-qPCR experiments are as follows: […]

G. mellonella larvae = experiment: Toxicity of compound to Galleria mellonella larvae; assay type: in vivo; conditions: high concentration (30 µM)
Method: Galleria mellonella was obtained from R.J. Mous Livebait (The Netherlands). The larvae were selected by weight (0.2–0.3 grams) and by the absence of dark spots on the cuticle. The larvae were maintained at room temperature, and the day before the experiment, they were transferred to the temperature at which the experiment was going to be performed (30°C). The number of dead caterpillars was scored every day. […] G. mellonella were infected with either C. glabrata 2001HT or FL-256; C. glabrata cells were grown in liquid media (Oxoid) overnight at 30°C with moderate shaking (150 rpm). Groups of 20 larvae per strain were infected in each experiment. The pro-leg area was cleaned with 70% ethanol using a swab. The larvae were inoculated with 10 µL of C. glabrata suspension at 2.5 × 10^6 cells/mL in PBS containing 50 µg/mL of ampicillin by injection, using a Hamilton syringe with 26-gauge needle in the last left pro-leg.

Candida spp. = experiment: Compound screening: Candida proliferation (OD600, 24 h), strain panel; assay type: cell-based; conditions: YNB −iron
Method: For experiments, yeast cells were routinely cultured in YPD media and incubated at 30°C overnight. The cultures were refreshed the next day for 2–3 h in YNB −iron (0.69% yeast nitrogen base without amino acids or iron, with 2% dextrose) media, unless stated, at the same temperature. After incubation, the optical density (OD600) of the cell cultures was measured and adjusted to 0.15.
The collismycin compounds were provided by EntreChem (Spain) at stock solutions of 20 mM in DMSO and stored at −20°C. For serial dilutions of the compounds in clear 96-well plates, intermediate stock concentrations of 100 µM of compound (100 µL for each technical replicate) were prepared in YNB −iron media unless otherwise specified, and 1:1 serial dilutions were performed using a multi-channel pipette. Fifty microliters of cell culture (OD600 = 0.15) were added to the wells containing the compounds, for a total volume of 150 µL. The final concentrations in the wells (with three technical replicates) were equivalent to 0.5, 1, 2.1, 4.2, 8.4, 16.7, 33.3, and 66.6 µM. The OD600 of each well was quantified, and the plates were incubated inside plastic bags (to prevent evaporation) at 30°C for 24 h, after which the final OD600 was measured. The EC50 was calculated using the four-parameter log logistic function with the drc package in R ([57]).

With c1ccc(-c2cccc(-c3ccccn3)n2)nc1 [2,2′:6′,2′′-terpyridine] the “binding of Fe^2+” value ([1]; 2-10 µM metal, 10 µM compound) was “preferentially binds Fe^2+ in a concentration-dependent manner”, the “binding of Fe^3+” value ([1]; 2-10 µM metal, 10 µM compound) was “much lesser extent than Fe^2+” and the “binding of Cu^2+” value ([1]; even at high concentrations) was “hardly bind”. For the same molecule, the “binding of Zn^2+” value ([1]; even at high concentrations) was “hardly bind”, the “relative ATP levels (luminescence)” value (C. glabrata cells) was “concentration- and time-dependent reduction in luminescence” and the “expression of Aft1/2 target genes FTR1, FET3, HMX1, LSO1” value [2] was “robust activation”. The “expression of control 5S RNA” value [2] was “no effect”, the “toxicity to the larvae” value (G. mellonella larvae) was “well tolerated” and the “inhibition of growth of Candida spp. compared to ColA” value (Candida spp.) was “more potently than ColA”.
